# Reference: PubChem BioAssay AID248 (DTP/NCI, 2004)
# “And” between values parts separate entries of the source, which are not always exact repeats. Equal entries are not always repeated. Inconclusive results and toxic doses are left out.
# System: L1210 leukemia ip in BDF1 mice, survival T/C
# Assay: NCI In Vivo Anticancer Drug Screen. Data for tumor model L1210 Leukemia (intraperitoneal) in B6D2F1 (BDF1) mice
# Conditions: endpoint: mean survival time, higher = longer survival
# How it was run: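 Survival endpoint. Drug-treated group vs vehicle group, expressed as T divided by C. Tumor passaged by transplantation.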
# [1] = dose: 50.0 mg/kg/injection, schedule: Q01DX009 (ip), vehicle: saline with Tween-80
# [2] = dose: 100.0 mg/kg/injection, schedule: Q01DX009 (ip), vehicle: saline with Tween-80
# [3] = dose: 200.0 mg/kg/injection, schedule: Q01DX009 (ip), vehicle: saline with Tween-80
# [4] = dose: 100.0 mg/kg/injection, schedule: Q04DX002 (ip), vehicle: saline with Tween-80
# [5] = dose: 200.0 mg/kg/injection, schedule: Q04DX002 (ip), vehicle: saline with Tween-80
# [6] = dose: 400.0 mg/kg/injection, schedule: Q04DX002 (ip), vehicle: saline with Tween-80
# [7] = dose: 100.0 mg/kg/injection, schedule: Q01DX001 (ip), vehicle: carboxymethylcellulose (CMC)
# [8] = dose: 400.0 mg/kg/injection, schedule: Q01DX001 (ip), vehicle: carboxymethylcellulose (CMC)
# [9] = dose: 400.0 mg/kg/injection, schedule: Q01DX009 (ip), vehicle: saline with Tween-80
# [10] = dose: 50.0 mg/kg/injection, schedule: Q01DX001 (ip), vehicle: saline
# [11] = dose: 100.0 mg/kg/injection, schedule: Q01DX001 (ip), vehicle: saline
# [12] = dose: 200.0 mg/kg/injection, schedule: Q01DX001 (ip), vehicle: saline
# [13] = dose: 400.0 mg/kg/injection, schedule: Q01DX001 (ip), vehicle: saline
# [14] = dose: 100.0 mg/kg/injection, schedule: Q04DX002 (ip), vehicle: Klucel (hydroxypropylcellulose) (HPC)
# [15] = dose: 200.0 mg/kg/injection, schedule: Q04DX002 (ip), vehicle: Klucel (hydroxypropylcellulose) (HPC)
# [16] = dose: 100.0 mg/kg/injection, schedule: Q04DX003 (ip), vehicle: saline with Tween-80
# [17] = dose: 200.0 mg/kg/injection, schedule: Q04DX003 (ip), vehicle: saline with Tween-80
# [18] = dose: 400.0 mg/kg/injection, schedule: Q04DX003 (ip), vehicle: saline with Tween-80
# [19] = dose: 100.0 mg/kg/injection, schedule: Q01DX009 (ip), vehicle: Klucel (hydroxypropylcellulose) (HPC)
# [20] = dose: 100.0 mg/kg/injection, schedule: Q04DX003 (ip), vehicle: Klucel (hydroxypropylcellulose) (HPC)
# [21] = dose: 200.0 mg/kg/injection, schedule: Q04DX003 (ip), vehicle: Klucel (hydroxypropylcellulose) (HPC)
# [22] = dose: 400.0 mg/kg/injection, schedule: Q04DX003 (ip), vehicle: Klucel (hydroxypropylcellulose) (HPC)
compound,measurement,setting,value
CN1CC(=O)NC1=O,T/C,"dose: 250.0 mg/kg/injection, schedule: Q01DX Z (ip), vehicle: saline",94 % of control
same,T/C,"dose: 500.0 mg/kg/injection, schedule: Q01DX Z (ip), vehicle: saline",97 % of control
same,T/C,"dose: 1000.0 mg/kg/injection, schedule: Q01DX Z (ip), vehicle: saline",96 % of control
Cn1c(=O)cn[nH]c1=O,T/C,[1],100 % of control
same,T/C,[2],108 % of control
same,T/C,[3],103 % of control
O=C(/C=C/c1ccccc1Cl)c1ccc(F)cc1,T/C,[4],94 % of control
same,T/C,[5],94 % of control
same,T/C,[6],97 % of control
Cc1ccc(NC(=O)N(CCBr)N=O)cc1,T/C,"dose: 26.0 mg/kg/injection, schedule: Q01DX015 (ip), vehicle: carboxymethylcellulose (CMC)",117 % of control
same,T/C,"dose: 39.0 mg/kg/injection, schedule: Q01DX015 (ip), vehicle: carboxymethylcellulose (CMC)",101 % of control
same,T/C,"dose: 58.0 mg/kg/injection, schedule: Q01DX015 (ip), vehicle: carboxymethylcellulose (CMC)",101 % of control and 121 % of control
same,T/C,"dose: 88.0 mg/kg/injection, schedule: Q01DX015 (ip), vehicle: carboxymethylcellulose (CMC)",103 % of control
same,T/C,[7],122 % of control
same,T/C,"dose: 133.0 mg/kg/injection, schedule: Q01DX015 (ip), vehicle: carboxymethylcellulose (CMC)",89 % of control
same,T/C,"dose: 266.0 mg/kg/injection, schedule: Q01DX001 (ip), vehicle: carboxymethylcellulose (CMC)",168 % of control
same,T/C,[8],150 % of control and 153 % of control
CCCC(C)OC(=O)Nc1cccc(O)c1 (stereo not given),T/C,[2],101 % of control
same,T/C,[3],101 % of control
same,T/C,[9],102 % of control
NC(=O)c1cn(C2OC(CO)C(O)C2O)c2ncn3ccnc3c12 (stereo not given),T/C,"dose: 6.25 mg/kg/injection, schedule: Q01DX005 (ip), vehicle: saline",101 % of control
same,T/C,"dose: 12.5 mg/kg/injection, schedule: Q01DX005 (ip), vehicle: saline",106 % of control
O=C(O)CN(CC(=O)O)c1ccccc1,T/C,[10],103 % of control
same,T/C,[11],92 % of control
same,T/C,[12],103 % of control
same,T/C,[13],95 % of control
NNC(=O)CNc1ccc(F)cc1F,T/C,[14],101 % of control
same,T/C,[15],114 % of control
NC(=O)c1[nH]cnc1/N=N/N(CCO)Cc1ccccc1,T/C,"dose: 50.0 mg/kg/injection, schedule: Q01DX001 (ip), vehicle: water",98 % of control
same,T/C,"dose: 50.0 mg/kg/injection, schedule: Q04DX003 (ip), vehicle: water",105 % of control
same,T/C,"dose: 100.0 mg/kg/injection, schedule: Q01DX001 (ip), vehicle: water",96 % of control
same,T/C,[2],98 % of control
same,T/C,"dose: 100.0 mg/kg/injection, schedule: Q04DX003 (ip), vehicle: water",105 % of control
same,T/C,"dose: 200.0 mg/kg/injection, schedule: Q01DX001 (ip), vehicle: water",98 % of control
same,T/C,[3],102 % of control
same,T/C,"dose: 200.0 mg/kg/injection, schedule: Q04DX003 (ip), vehicle: water",101 % of control
same,T/C,"dose: 400.0 mg/kg/injection, schedule: Q01DX001 (ip), vehicle: water",101 % of control
same,T/C,[9],95 % of control
same,T/C,"dose: 400.0 mg/kg/injection, schedule: Q04DX003 (ip), vehicle: water",97 % of control
COC(=O)C[N+]12CN3CN(CN(C3)C1)C2,T/C,[10],98 % of control
same,T/C,[11],100 % of control
same,T/C,"dose: 100.0 mg/kg/injection, schedule: Q04DX003 (ip), vehicle: saline",107 % of control
same,T/C,[12],96 % of control
same,T/C,"dose: 200.0 mg/kg/injection, schedule: Q04DX003 (ip), vehicle: saline",107 % of control
same,T/C,[13],107 % of control
same,T/C,"dose: 400.0 mg/kg/injection, schedule: Q04DX003 (ip), vehicle: saline",108 % of control
CCCCCCC#CC(=O)OCC,T/C,"dose: 100.0 mg/kg/injection, schedule: Q04DX002 (ip), vehicle: saline",89 % of control
same,T/C,"dose: 200.0 mg/kg/injection, schedule: Q04DX002 (ip), vehicle: saline",104 % of control
CCOc1ccc(Cl)cc1C1N(Cc2ccccc2OC)CCCN1Cc1ccccc1OC,T/C,[7],87 % of control
same,T/C,"dose: 200.0 mg/kg/injection, schedule: Q01DX001 (ip), vehicle: carboxymethylcellulose (CMC)",93 % of control
same,T/C,[8],91 % of control
Cc1ccccc1NC(=O)Oc1ccccc1-c1ccccc1,T/C,[14],103 % of control
same,T/C,[15],118 % of control
same,T/C,"dose: 400.0 mg/kg/injection, schedule: Q04DX002 (ip), vehicle: Klucel (hydroxypropylcellulose) (HPC)",118 % of control
CN(C)N=Nc1c(Br)cc(Br)cc1Br,T/C,[1],87 % of control
same,T/C,[2],102 % of control
same,T/C,[3],105 % of control
Cc1ccc(S(=O)(=O)OCCCOS(=O)(=O)c2ccc(C)cc2)cc1,T/C,[16],96 % of control
same,T/C,[17],102 % of control
same,T/C,[18],98 % of control
CCC(C)(C1CCC(=O)CC1)C1CCC(=O)CC1,T/C,[11],94 % of control
same,T/C,[12],100 % of control
same,T/C,[13],93 % of control
O=C(NC(=S)Nc1cccc(F)c1)c1cccc([N+](=O)[O-])c1,T/C,"dose: 100.0 mg/kg/injection, schedule: Q01DX001 (ip), vehicle: saline with Tween-80",98 % of control
same,T/C,[2],94 % of control and 95 % of control
same,T/C,[4],101 % of control and 111 % of control
same,T/C,[16],98 % of control
same,T/C,"dose: 200.0 mg/kg/injection, schedule: Q01DX001 (ip), vehicle: saline with Tween-80",93 % of control
same,T/C,[3],98 % of control and 90 % of control
same,T/C,[5],92 % of control and 96 % of control
same,T/C,[17],102 % of control
same,T/C,[9],92 % of control and 94 % of control
same,T/C,[6],101 % of control and 103 % of control
same,T/C,[18],101 % of control
Cc1ccc(S(=O)(O)=S)cc1.[Fe],T/C,"dose: 75.0 mg/kg/injection, schedule: Q01DX001 (ip), vehicle: saline",88 % of control
same,T/C,"dose: 300.0 mg/kg/injection, schedule: Q01DX001 (ip), vehicle: saline",86 % of control
COC(=O)CNc1ccc(S(=O)(=O)c2ccc(N)cc2)cc1,T/C,[19],107 % of control
same,T/C,[20],97 % of control
same,T/C,"dose: 200.0 mg/kg/injection, schedule: Q01DX009 (ip), vehicle: Klucel (hydroxypropylcellulose) (HPC)",92 % of control
same,T/C,[21],101 % of control
same,T/C,"dose: 400.0 mg/kg/injection, schedule: Q01DX009 (ip), vehicle: Klucel (hydroxypropylcellulose) (HPC)",88 % of control
same,T/C,[22],97 % of control
NC(N)=N/N=C(/C(=N\N=C(N)N)c1ccco1)c1ccco1,T/C,"dose: 8.0 mg/kg/injection, schedule: Q01DX Z (oral), vehicle: methylcellulose (MC)",89 % of control
same,T/C,"dose: 15.0 mg/kg/injection, schedule: Q01DX Z (ip), vehicle: methylcellulose (MC)",100 % of control
same,T/C,"dose: 15.0 mg/kg/injection, schedule: Q01DX Z (oral), vehicle: methylcellulose (MC)",96 % of control
same,T/C,"dose: 30.0 mg/kg/injection, schedule: Q01DX Z (oral), vehicle: methylcellulose (MC)",105 % of control
CC(=O)Nc1cccc2c1C(=O)c1ccccc1-2,T/C,[16],102 % of control
same,T/C,[17],112 % of control
same,T/C,[18],102 % of control
NC(=O)OCC1OC(n2cnc3c(=O)[nH]c(N)nc32)C(O)C1O (stereo not given),T/C,"dose: 25.0 mg/kg/injection, schedule: Q01DX009 (ip), vehicle: Klucel (hydroxypropylcellulose) (HPC)",94 % of control
same,T/C,"dose: 50.0 mg/kg/injection, schedule: Q01DX009 (ip), vehicle: Klucel (hydroxypropylcellulose) (HPC)",98 % of control
same,T/C,"dose: 100.0 mg/kg/injection, schedule: Q01DX005 (ip), vehicle: saline",105 % of control
same,T/C,[19],94 % of control
same,T/C,"dose: 200.0 mg/kg/injection, schedule: Q01DX005 (ip), vehicle: saline",92 % of control
O=C1OCC/C1=C\C1CC=CCC1 (stereo not given),T/C,"dose: 67.0 mg/kg/injection, schedule: Q04DX003 (ip), vehicle: saline with Tween-80",96 % of control
same,T/C,[16],88 % of control
same,T/C,"dose: 150.0 mg/kg/injection, schedule: Q04DX003 (ip), vehicle: saline with Tween-80",96 % of control
O=[N+]([O-])c1cc(C(F)(F)F)ccc1Oc1ccc(Cl)cc1,T/C,[20],96 % of control
same,T/C,[21],103 % of control
same,T/C,[22],96 % of control
